We go through 18 compounds from patent US9611262B2, “Substituted 2-azabicycles and their use as orexin receptor modulators” (JANSSEN PHARMACEUTICA NV, priority 2014, dated 2017).

The target in the assay is human orexin 2 receptor (Homo sapiens (Human), UniProt O43614). In words: Human orexin 2 receptor radioligand binding ([3H]-EMPA competition). Particulars: HEK293 stably expressing human orexin 2 receptor; 2 nM [3H]-EMPA; averages of 2-20 runs; read-out: hOX2 Ki. The method, then: The in vitro affinity of the compounds of the invention for the rat/human orexin 1 and human orexin 2 receptors was determined by competitive radioligand binding using [^3H](1-(5-(2-fluoro-phenyl)-2-methyl-thiazol-4-yl)-1-((S)-2-(5-phenyl-(1,3,4)oxadiazol-2-ylmethyl)-pyrrolidin-1-yl)-methanone) (Langmead et al., 2004) and [^3H]EMPA (n-ethyl-2[96-methoxy-pyridin-3-yl)-(toluene-2-sulfonyl)-amino]-N-pyridin-3-ylmethyl acetamide), respectively (Langmead et al., 2004, British Journal of Pharmacology 141:340-346; Malherbe et al., 2004, British Journal of Pharmacology 156:1326-41).
Data are analyzed using pc-Sandy macro and graphed on Graphpad Prism 5. For analysis, each concentration point is averaged from triplicate values and the averaged values are plotted on Graphpad Prism. The IC50 was determined by applying the following equation (GraphPad Prism 5.0, San Diego) for one site competition where X=log (concentration) and Y=specific binding. Top denotes the total [^3H]— (1-(5-(2-fluoro-phenyl)-2-methyl-thiazol-4-yl)-1-((S)-2-(5-phenyl-(1,3,4)oxadiazol-2-ylmethyl)-pyrrolidin-1-yl)-methanone) binding, bottom denotes the nonspecific [^3H]— (1-(5-(2-fluoro-phenyl)-2-methyl-thiazol-4-yl)-1-((S)-2-(5-phenyl-(1,3,4)oxadiazol-2-ylmethyl)-pyrrolidin-1-yl)-methanone) binding. Graphpad Prism calculates Ki value from IC50 and the pre-determined Kd values for [^3H]— (1-(5-(2-fluoro-phenyl)-2-methyl-thiazol-4-yl)-1-((S)-2-(5-phenyl-(1,3,4)oxadiazol-2-ylmethyl)-pyrrolidin-1-yl)-methanone) and [^3H]-EMPA. The Ki for each compound is then uploaded into 3DX. Each run comprises individual compounds in triplicate. The data in Table 1 and Table 2 represent averages from between 2-20 runs
Human Orexin 2 Receptor Radioligand Binding Studies
HEK293 stably expressing human orexin 2 receptor (Genebank accession number NM_001526) were grown to confluency in DMEM (Hyclone, cat # SH30022), 10% FBS, 1× Pen/Strep, 1× NaPyruvate, 10 mM HEPES, 600 μg/ml G418 media on 150 cm^2 tissue culture plates, washed with 5 mM EDTA in PBS (HyClone Dulbecco's Phosphate Buffered Saline 1× with Calcium and Magnesium, Cat # SH30264.01, hereafter referred to simply as PBS) and scraped into 50 ml tubes. After centrifugation (2K×G, 5 min at 4° C.), the supernatant was aspirated and the pellets frozen and stored at −80° C. Cells were resuspended in PBS in the presence of 1 tablet of protease inhibitor cocktail (Roche, Cat. #11836145001) per 50 mL. […] Compounds were solubilized in 100% DMSO (Acros Organics, Cat. #61042-1000) and tested over a range of 7 concentration (from 0.1 nM to 10 μM). The final concentration of DMSO in the reactions is equal to or less than 0.1%. Total and nonspecific binding was determined in the absence and presence of 10 μM almorexant. The total volume of each reaction is 200 μL (20 μL of diluted compounds, 80 μL of [^3H]-EMPA diluted in PBS and 100 μL of the cell suspension). Reactions were run for 60 min at room temperature and terminated by filtration through GF/C filter plates (PerkinElmer, Cat. #6005174) presoaked in 0.3% polyethylenimine using the cell harvester (PerkinElmer Filtermate). The plates were washed 3 times by aspirating 30 ml PBS through the plates. Plates were dried in 55° C. oven for 60 min, scintillation fluid was added, and the radioactivity was counted on a Topcount (Packard).

Chain of human orexin 2 receptor (O43614 whole entry): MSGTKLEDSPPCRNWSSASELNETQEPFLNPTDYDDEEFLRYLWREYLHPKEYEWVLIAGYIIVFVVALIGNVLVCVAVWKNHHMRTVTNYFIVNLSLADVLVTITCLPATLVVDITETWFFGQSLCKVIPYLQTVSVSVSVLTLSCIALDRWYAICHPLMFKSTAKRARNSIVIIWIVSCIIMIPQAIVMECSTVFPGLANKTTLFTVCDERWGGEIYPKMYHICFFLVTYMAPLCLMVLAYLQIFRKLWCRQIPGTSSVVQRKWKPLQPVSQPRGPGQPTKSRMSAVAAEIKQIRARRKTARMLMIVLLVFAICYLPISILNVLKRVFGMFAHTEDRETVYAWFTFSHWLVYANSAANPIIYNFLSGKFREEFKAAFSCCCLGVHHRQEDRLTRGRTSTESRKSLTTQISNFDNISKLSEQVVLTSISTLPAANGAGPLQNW

`CC(C)CC1C2CC(Oc3ccc(C(F)(F)F)cn3)C(C2)N1C(=O)c1cccc(F)c1-c1ncccn1` (racemic) [Example 211, (R/S)-(3-fluoro-2-pyrimidin-2-yl-phenyl)-[2-isobutyl-5-[[5-(trifluoromethyl)-2-pyridyl]oxy]-3-azabicyclo[2.2.1]heptan-3-yl]methanone]: the Ki worked out at 3300 nM.
For the compound `CCC1C2CC(Oc3ccc(C(F)(F)F)cn3)C(C2)N1C(=O)c1ccccc1-c1ncccn1` (racemic) [Example 214, (R/S)-[2-ethyl-5-[[5-(trifluoromethyl)-2-pyridyl]oxy]-3-azabicyclo[2.2.1]heptan-3-yl]-(2-pyrimidin-2-ylphenyl)methanone], the inhibition constant (Ki) came to 316 nM.
As to `C[C@@H]1[C@H]2C[C@@H](Oc3ccc(C(F)(F)F)cn3)[C@H](C2)N1C(=O)c1ncccc1-n1nccn1` (relative stereo) [Example 23, (3-(2H-1,2,3-triazol-2-yl)pyridin-2-yl)((1S*,3R*,4R*,6R*)-3-methyl-6-((5-(trifluoromethyl)pyridin-2-yl)oxy)-2-azabicyclo[2.2.1]heptan-2-yl)methanone], the Ki is 2400 nM.
For `C[C@@H]1[C@H]2C[C@@H](Oc3ccc(C(F)(F)F)cn3)[C@H](C2)N1C(=O)c1c(F)cccc1-n1nccn1` (relative stereo) [Example 30, (2-fluoro-6-(2H-1,2,3-triazol-2-yl)phenyl)((1S*,3R*,4R*,6R*)-3-methyl-6-((5-(trifluoromethyl)pyridin-2-yl)oxy)-2-azabicyclo[2.2.1]heptan-2-yl)methanone], the inhibitory constant (Ki) stood at 689 nM.
Turning to `C[C@@H]1[C@H]2C[C@@H](Oc3ccc(C(F)(F)F)cn3)[C@H](C2)N1C(=O)c1ccccc1-c1ncccn1` (relative stereo) [Example 33, ((1S*,3R*,4R*,6R*)-3-methyl-6-((5-(trifluoromethyl)pyridin-2-yl)oxy)-2-azabicyclo[2.2.1]heptan-2-yl)(2-(pyrimidin-2-yl)phenyl)methanone], the inhibitory constant (Ki) turned out to be 602 nM.
In the case of `Cc1cnc(C(=O)N2[C@H](C)[C@H]3C[C@@H](Oc4cnc(C(F)(F)F)cn4)[C@@H]2C3)c(-n2nccn2)c1` (relative stereo) [Example 48, (5-methyl-3-(2H-1,2,3-triazol-2-yl)pyridin-2-yl)((1S*,3R*,4R*,6R*)-3-methyl-6-((5-(trifluoromethyl)pyrazin-2-yl)oxy)-2-azabicyclo[2.2.1]heptan-2-yl)methanone], the Ki is above 10000 nM.
For the compound `Cc1ccc(C(=O)N2[C@H](C)[C@H]3C[C@@H](Oc4cnc(C(F)(F)F)cn4)[C@@H]2C3)c(-n2nccn2)n1` (relative stereo) [Example 49, (6-methyl-2-(2H-1,2,3-triazol-2-yl)pyridin-3-yl)((1S*,3R*,4R*,6R*)-3-methyl-6-((5-(trifluoromethyl)pyrazin-2-yl)oxy)-2-azabicyclo[2.2.1]heptan-2-yl)methanone], the inhibition constant Ki was above 10000 nM.
`C[C@@H]1[C@H]2C[C@@H](Oc3cnc(C(F)(F)F)cn3)[C@H](C2)N1C(=O)c1ccc(F)cc1-n1nccn1` (relative stereo) [Example 53, (4-fluoro-2-(2H-1,2,3-triazol-2-yl)phenyl)((1S*,3R*,4R*,6R*)-3-methyl-6-((5-(trifluoromethyl)pyrazin-2-yl)oxy)-2-azabicyclo[2.2.1]heptan-2-yl)methanone]: the Ki was 7600 nM.
With `CCOc1ccc(C)nc1C(=O)N1[C@H](C)[C@H]2C[C@@H](Oc3cnc(C(F)(F)F)cn3)[C@@H]1C2` (relative stereo) [Example 56, (3-ethoxy-6-methylpyridin-2-yl)((1S*,3R*,4R*,6R*)-3-methyl-6-((5-(trifluoromethyl)pyrazin-2-yl)oxy)-2-azabicyclo[2.2.1]heptan-2-yl)methanone], the inhibitory constant (Ki) stood at 7000 nM.
Consider `C[C@@H]1[C@H]2C[C@@H](Nc3ccc(C(F)(F)F)cn3)[C@H](C2)N1C(=O)c1ncccc1-n1nccn1` (relative stereo) [Example 64, (3-(2H-1,2,3-triazol-2-yl)pyridin-2-yl)((1S*,3R*,4S*,6R*)-3-methyl-6-((5-(trifluoromethyl)pyridin-2-yl)amino)-2-azabicyclo[2.2.1]heptan-2-yl)methanone], for which the Ki was found to be 324 nM.
For the compound `C[C@@H]1[C@H]2C[C@@H](Nc3ccc(C(F)(F)F)cn3)[C@H](C2)N1C(=O)c1cccc(F)c1-n1nccn1` (relative stereo) [Example 65, (3-fluoro-2-(2H-1,2,3-triazol-2-yl)phenyl)((1S*,3R*,4S*,6R*)-3-methyl-6-((5-(trifluoromethyl)pyridin-2-yl)amino)-2-azabicyclo[2.2.1]heptan-2-yl)methanone], the Ki amounted to 183 nM.
Take `Cc1cnc(C(=O)N2[C@H](C)[C@H]3C[C@@H](Nc4ccc(C(F)(F)F)cn4)[C@@H]2C3)c(-n2nccn2)c1` (relative stereo) [Example 66, (5-methyl-3-(2H-1,2,3-triazol-2-yl)pyridin-2-yl)((1S*,3R*,4S*,6R*)-3-methyl-6-((5-(trifluoromethyl)pyridin-2-yl)amino)-2-azabicyclo[2.2.1]heptan-2-yl)methanone]: the inhibition constant (Ki) stood at 317 nM.
As for `Cc1ccc(-n2nccn2)c(C(=O)N2[C@H](C)[C@H]3C[C@@H](Oc4cnc5ccccc5n4)[C@@H]2C3)n1` (relative stereo) [Example 183, (6-methyl-3-(2H-1,2,3-triazol-2-yl)pyridin-2-yl)((1S*,3R*,4R*,6R*)-3-methyl-6-(quinoxalin-2-yloxy)-2-azabicyclo[2.2.1]heptan-2-yl)methanone], the Ki worked out at 195 nM.
Then `Cc1ccc(-n2nccn2)c(C(=O)N2[C@H](C)[C@H]3C[C@@H](Oc4cnc5ccccc5c4)[C@@H]2C3)n1` (relative stereo) [Example 185, (6-methyl-3-(2H-1,2,3-triazol-2-yl)pyridin-2-yl)((1S*,3R*,4R*,6R*)-3-methyl-6-(quinolin-3-yloxy)-2-azabicyclo[2.2.1]heptan-2-yl)methanone], with 61 nM; and `C[C@@H]1[C@H]2C[C@@H](Oc3cnc4cc(F)c(F)cc4n3)[C@H](C2)N1C(=O)c1cccc(F)c1-n1nccn1` (relative stereo) [Example 190, ((1S*,3R*,4R*,6R*)-6-((6,7-difluoroquinoxalin-2-yl)oxy)-3-methyl-2-azabicyclo[2.2.1]heptan-2-yl)(3-fluoro-2-(2H-1,2,3-triazol-2-yl)phenyl)methanone], with 123 nM.
Consider `C[C@@H]1[C@H]2C[C@@H](Oc3cnc4cc(F)c(F)cc4n3)[C@H](C2)N1C(=O)c1ccccc1-n1nccn1` (relative stereo) [Example 191, (2-(2H-1,2,3-triazol-2-yl)phenyl)((1S*,3R*,4R*,6R*)-6-((6,7-difluoroquinoxalin-2-yl)oxy)-3-methyl-2-azabicyclo[2.2.1]heptan-2-yl)methanone], for which the inhibition constant Ki was found to be 72 nM.
Consider `CC1C2CC(Nc3cnc(C(F)(F)F)cn3)C(C2)N1C(=O)c1ccccc1-n1nccn1` (single isomer, unassigned) [Example 5A, (2-(2H-1,2,3-triazol-2-yl)phenyl)((1R*,3R*,4R*,6S*)-3-methyl-6-((5-(trifluoromethyl)pyrazin-2-yl)amino)-2-azabicyclo[2.2.1]heptan-2-yl)methanone], for which the Ki was above 10000 nM.
For `CC1C2CC(Nc3cnc(C(F)(F)F)cn3)C(C2)N1C(=O)c1ccccc1-n1nccn1` (single isomer, unassigned) [Example 5B, (2-(2H-1,2,3-triazol-2-yl)phenyl)((1S*,3S*,4S*,6R*)-3-methyl-6-((5-(trifluoromethyl)pyrazin-2-yl)amino)-2-azabicyclo[2.2.1]heptan-2-yl)methanone], the Ki turned out to be 146 nM.
